The test system of one assay is TEAD Reporter-MCF7 cell line. Put plainly: YAP/TEAD cellular activity assay: inhibition of TEAD-Luc activity in TEAD Reporter-MCF7 cell line. It is filed as cell-based, human. Particulars: Homo sapiens, MCF7, 24 h, TEAD Reporter-MCF7 cells, 24 hours incubation with compound, luciferase readout. Summed up: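 MCF7 cells stably carrying a TEAD-responsive firefly luciferase reporter were seeded at 10,000 cells/well, grown 20-24 h, then exposed to compounds for 24 h at 37° C. Luciferase read by ONE-Glo EX luminescence; percent inhibition and EC50 derived.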
For `CNS(=O)(=O)c1ccc(Oc2ccc(C(F)(F)F)cc2)c(-c2nc3c(s2)CNC3)c1` [1-14, 3-(5,6-dihydro-4H-pyrrolo[3,4-d] [1,3]thiazol-2-yl)-N-methyl-4-[4-(trifluoromethyl)phenoxy]benzene-1-sulfonamide], the EC50 amounted to 2640 nM.
`CNS(=O)(=O)c1ccc(Oc2ccc(OC)cc2)c(-c2cn3c(n2)CCC3)c1` [4-14, 3-(6,7-dihydro-5H-pyrrolo[1,2-a]imidazol-2-yl)-4-(4-methoxyphenoxy)-N-methylbenzene-1-sulfonamide]: the EC50 was 45.7 nM.
Still for that read-out and setting: under `CNS(=O)(=O)c1ccc(Oc2ccc(C(F)(F)F)cc2)c(-c2ccc3c(c2)OCO3)c1` [2-14, 3-(2H-1,3-benzodioxol-5-yl)-N-methyl-4-[4-(trifluoromethyl)phenoxy]benzene-1-sulfonamide] stands 247 nM; under `CNS(=O)(=O)c1ccc(Oc2ccc(C(F)(F)F)cc2)c(-c2cnc3n2CCC3)c1` [1-6, 3-(6,7-dihydro-5H-pyrrolo[1,2-a]imidazol-3-yl)-N-methyl-4-[4-(trifluoromethyl)phenoxy]benzene-1-sulfonamide], 3490 nM; under `CCc1ccc(Oc2ccc(S(=O)(=O)NC)cc2-c2cn3c(n2)CCC3)cc1` [4-9, 3-(6,7-dihydro-5H-pyrrolo [1,2-a]imidazol-2-yl)-4-(4-ethylphenoxy)-N-methylbenzene-1-sulfonamide], 15.1 nM.
For the compound `CNS(=O)(=O)c1ccc(Oc2ccc(C(F)(F)F)cc2)c(-c2cn3c(n2)CCC3)c1` [1-1, 3-(6,7-Dihydro-5H-pyrrolo[1,2-a]imidazol-2-yl)-N-methyl-4-(4-(trifluoromethyl)phenoxy)benzenesulfonamide], the EC50 turned out to be 6 nM.
On the same count and under the same terms, under `CNS(=O)(=O)c1ccc(Oc2ccc(C(F)(F)F)cc2)c(-c2cnc3c(c2)OCCN3C)c1` [2-18, N-methyl-3-(4-methyl-3,4-dihydro-2H-pyrido[3,2-b][1,4]oxazin-7-yl)-4-[4-(trifluoromethyl)phenoxy]benzene-1-sulfonamide] stands 606 nM.
Same read-out and setting: under `CNS(=O)(=O)c1ccc(Oc2ccc(C(F)(F)F)cc2)c(-c2cncc3ccccc23)c1` [2-19, 3-(isoquinolin-4-yl)-N-methyl-4-[4-(trifluoromethyl)phenoxy]benzene-1-sulfonamide] stands 8860 nM; under `CNS(=O)(=O)c1ccc(Oc2ccc(F)cc2)c(-c2cc3n(n2)CCC3)c1` [8-2, 3-(5,6-dihydro-4H-pyrrolo[1,2-b]pyrazol-2-yl)-4-(4-fluorophenoxy)-N-methylbenzene-1-sulfonamide], 21.5 nM.
On to `CNS(=O)(=O)c1ccc(Oc2ccc(C(F)(F)F)cc2)c(-c2cn3c(n2)C(O)CC3)c1` (stereo not drawn) [9-1, 3-(7-Hydroxy-6,7-dihydro-5H-pyrrolo[1,2-a]imidazol-2-yl)-N-methyl-4-(4-(trifluoromethyl)phenoxy)benzenesulfonamide], for which the EC50 was 907 nM.
Consider `CNS(=O)(=O)c1ccc(Oc2ccc(C(F)(F)F)cc2)c(-c2ccc3[nH]c(=O)[nH]c3c2)c1` [2-5, N-methyl-3-(2-oxo-2,3-dihydro-1H-benzimidazol-5-yl)-4-[4-(trifluoromethyl)phenoxy]benzene-1-sulfonamide], for which the EC50 is 4540 nM.
Turning to `CNS(=O)(=O)c1ccc(Oc2ccc(Cl)cc2)c(-c2cnn3c2OCC3)c1` [1-47, 4-(4-chlorophenoxy)-3-(2,3-dihydropyrazolo[5,1-b]oxazol-7-yl)-N-methylbenzenesulfonamide], the EC50 stood at 104 nM.
The same measure, in the same setting: under `CNS(=O)(=O)c1ccc(Oc2ccc(OC(F)(F)F)cc2)c(-c2cnn3c2CCC3)c1` [3-4, 3-(5,6-dihydro-4H-pyrrolo[1,2-b]pyrazol-3-yl)-N-methyl-4-[4-(trifluoromethoxy)phenoxy]benzene-1-sulfonamide] stands 618 nM; under `CNS(=O)(=O)c1ccc(Oc2ccc(C(F)(F)F)cc2)c(-c2cc3ncccn3n2)c1` [1-19, N-methyl-3-(pyrazolo[1,5-a]pyrimidin-2-yl)-4-[4-(trifluoromethyl)phenoxy]benzene-1-sulfonamide], 60.6 nM; under `CNS(=O)(=O)c1ccc(Oc2ccc(C(F)(F)F)cc2)c(-c2cnc3c(C)cccn23)c1` [1-4, N-Methyl-3-(8-methylimidazo[1,2-a]pyridin-3-yl)-4-(4-(trifluoromethyl)phenoxy)benzenesulfonamide], 6030 nM.
As to `CNS(=O)(=O)c1ccc(Oc2ccc(C(F)(F)F)cc2)c(-c2cc3n(n2)CCN3)c1` [1-45, 3-(2,3-dihydro-1H-imidazo[1,2-b]pyrazol-6-yl)-N-methyl-4-[4-(trifluoromethyl)phenoxy]benzene-1-sulfonamide], the EC50 was found to be 64.4 nM.
Same read-out and setting: under `CNS(=O)(=O)c1ccc(Oc2ccc(C(F)(F)F)cc2)c(-c2nsc3ccccc23)c1` [1-13, 3-(1,2-benzothiazol-3-yl)-N-methyl-4-[4-(trifluoromethyl)phenoxy]benzene-1-sulfonamide] stands 414 nM; under `CNS(=O)(=O)c1ccc(Oc2ccc(C(F)(F)F)cc2)c(-c2cn3c(n2)CCCC3)c1` [1-9, N-methyl-3-(5,6,7,8-tetrahydroimidazo [1,2-a]pyridin-2-yl)-4-[4-(trifluoromethyl)phenoxy]benzene-1-sulfonamide], 12.8 nM.
As for `CNS(=O)(=O)c1ccc(Oc2ccc(C(F)(F)F)cc2)c(-c2cccc3cnccc23)c1` [2-20, 3-(isoquinolin-5-yl)-N-methyl-4-[4-(trifluoromethyl)phenoxy]benzene-1-sulfonamide], the EC50 was determined as 4780 nM.
The same measure, in the same setting: under `CNS(=O)(=O)c1ccc(Oc2ccc(C(F)(F)F)cc2)c(-c2ccc3nccnc3c2)c1` [2-27, N-methyl-3-(quinoxalin-6-yl)-4-[4-(trifluoromethyl)phenoxy]benzene-1-sulfonamide] stands 410 nM; under `CNS(=O)(=O)c1ccc(Oc2ccc(C(F)(F)F)cc2)c(-c2cc3n(n2)CCCC3)c1` [1-36, N-methyl-3-(4,5,6,7-tetrahydropyrazolo[1,5-a]pyridin-2-yl)-4-[4-(trifluoromethyl)phenoxy]benzene-1-sulfonamide], 4.6 nM; under `CNS(=O)(=O)c1ccc(Oc2ccc(C(F)(F)F)cc2)c(-c2nc(C)n3c2COCC3)c1` [1-22, N-methyl-3-(3-methyl-5,6-dihydro-8H-imidazo[5,1-c][1,4]oxazin-1-yl)-4-[4-(trifluoromethyl)phenoxy]benzene-1-sulfonamide], 1820 nM.
The same measure, in the same setting: under `CNS(=O)(=O)c1ccc(Oc2ccc(Cl)c(C(F)(F)F)c2)c(-c2cn3c(n2)CCC3)c1` [4-16, 4-[4-chloro-3-(trifluoromethyl)phenoxy]-3-(6,7-dihydro-5H-pyrrolo[1,2-a]imidazol-2-yl)-N-methylbenzene-1-sulfonamide] stands 5.2 nM; under `CNS(=O)(=O)c1ccc(Oc2ccc(C(C)=O)cc2)c(-c2cn3c(n2)CCC3)c1` [1-50, 4-(4-acetylphenoxy)-3-(6,7-dihydro-5H-pyrrolo[1,2-a]imidazol-2-yl)-N-methylbenzene-1-sulfonamide], 416 nM; under `CNS(=O)(=O)c1ccc(Oc2ccc(C(F)(F)F)cc2)c(-c2ccc3c(c2)NC(=O)CO3)c1` [2-22, N-methyl-3-(3-oxo-3,4-dihydro-2H-1,4-benzoxazin-6-yl)-4-[4-(trifluoromethyl)phenoxy]benzene-1-sulfonamide], 92.6 nM.
The same measure, in the same setting: under `CNS(=O)(=O)c1ccc(Oc2ccc(C(F)(F)F)cc2)c(-c2ccc3c(c2)C(=O)N(CC2CC2)C3)c1` [2-11, 3-[2-(cyclopropylmethyl)-3-oxo-2,3-dihydro-1H-isoindol-5-yl]-N-methyl-4-[4-(trifluoromethyl)phenoxy]benzene-1-sulfonamide] stands 338 nM; under `CNS(=O)(=O)c1ccc(Oc2ccc(Cl)cc2F)c(-c2cn3c(n2)CCC3)c1` [4-20, 4-(4-chloro-2-fluorophenoxy)-3-(6,7-dihydro-5H-pyrrolo[1,2-a]imidazol-2-yl)-N-methylbenzene-1-sulfonamide], 15 nM.
`CNS(=O)(=O)c1ccc(Oc2ccc(C(F)(F)F)cc2)c(-c2ccc3nc(OC)ccc3c2)c1` [2-29, 3-(2-methoxyquinolin-6-yl)-N-methyl-4-[4-(trifluoromethyl)phenoxy]benzene-1-sulfonamide]: the EC50 stood at 89.7 nM.

Still in this assay, the particulars now being: Homo sapiens; TEAD Reporter-MCF7 cells, 24 hours incubation with compound, luciferase readout.
For the compound `CC(C)NS(=O)(=O)c1ccc(Oc2ccc(C(F)(F)F)cc2)c(-c2cn3c(n2)CCC3)c1` [7-1, 3-(6,7-dihydro-5H-pyrrolo[1,2-a]imidazol-2-yl)-N-(propan-2-yl)-4-[4-(trifluoromethyl)phenoxy]benzene-1-sulfonamide], the EC50 stood at 138 nM.

The same assay, now with this note: TEAD Reporter-MCF7 cells, 24 hours incubation with compound, luciferase readout.
Regarding `CNS(=O)(=O)c1ccc(Oc2ccc(F)cc2F)c(-c2cn3c(n2)CCC3)c1` [4-22, 4-(2,4-difluorophenoxy)-3-(6,7-dihydro-5H-pyrrolo[1,2-a]imidazol-2-yl)-N-methylbenzene-1-sulfonamide], the EC50 was determined as 25.3 nM.
Same read-out and setting: under `CNS(=O)(=O)c1ccc(Oc2ccc(C(F)(F)F)cc2)c(-c2cn3c(n2)OC(C)C3)c1` (single isomer, unassigned) [1-38, (R)- or (S)-N-methyl-3-(2-methyl-2,3-dihydroimidazo[2,1-b] [1,3]oxazol-6-yl)-4-[4-(trifluoromethyl)phenoxy]benzene-1-sulfonamide] stands 28.4 nM.
`CNS(=O)(=O)c1ccc(Oc2ccc(F)cc2F)c(-c2cn3c(n2)CCC3)c1` [4-21, 4-(2,4-difluorophenoxy)-3-(6,7-dihydro-5H-pyrrolo[1,2-a]imidazol-2-yl)-N-methylbenzene-1-sulfonamide]: the EC50 came to 55.9 nM.
Same read-out and setting: under `CNS(=O)(=O)c1ccc(Oc2ccc(C(F)(F)F)cc2)c(-c2cn3c(n2)OC(C)C3)c1` (single isomer, unassigned) [1-39, (S)- or (R)-N-methyl-3-(2-methyl-2,3-dihydroimidazo[2,1-b] [1,3]oxazol-6-yl)-4-[4-(trifluoromethyl)phenoxy]benzene-1-sulfonamide] stands 7.4 nM.

Source of the values: patent publication US20240083903A1, “ARYL ETHER COMPOUNDS AS TEAD MODULATORS” (Merck Sharp& Dohme LLC, priority 2021, published 2024).
